# According to patent publication US20220324835A1 (Nurix Therapeutics, Inc., priority 2018, published 2022):
# Tests used:
# Cbl-b [1] = target: T1, Cbl-b (Homo sapiens, UniProt Q13191); test: Cbl-b inhibition assay (Cbl-b activity assay, FRET, Biological Example 1; 100 mM NaCl, 60 nM Src kinase); type: biochemical; conditions: upper bound stated in text lists; read-out: IC50 values in the Cbl-b inhibition assay of Biological Example 1
# In short: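 Inhibition is read as loss of FRET signal. The signal arises when Src-phosphorylated, N-terminal biotinylated Avi-Cbl-b (captured by streptavidin-terbium) binds UbcH5B carrying covalently linked Bodipy-Fluorescein-tagged ubiquitin.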
# T-cell [2] = test: IL-2 secretion from T-cells co-stimulated with anti-CD3 and anti-CD28 antibody (Biological Example 2); type: cell-based, human; conditions: Homo sapiens, T-cell, read-out: IL-2 secretion Anti-CD3/Anti-CD28 stimulation; for fold induction at 0.3 µM: 0.3 μM Cbl-b inhibitor; for fold induction at 1 µM: 1 μM Cbl-b inhibitor; for fold induction at 4 µM: 4 μM Cbl-b inhibitor
# In short: (§1)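 T-cells were stimulated with anti-CD3 antibody alone or with anti-CD28 antibody, in the presence or absence of Cbl-b inhibitor. IL-2 secretion or CD25 surface staining was measured, and values expressed as fold over the uninhibited baseline […].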
# T-cell [3] = test: IL-2 secretion from T-cells stimulated with anti-CD3 antibody alone (Biological Example 2); type: cell-based, human; conditions: T-cell, read-out: IL-2 secretion Anti-CD3 stimulation; for fold induction at 1 µM: 1 μM Cbl-b inhibitor; for fold induction at 8 µM: 8 μM Cbl-b inhibitor
# T-cell [4] = test: CD25 cell surface staining on T-cells co-stimulated with anti-CD3 and anti-CD28 antibody (Biological Example 2); type: cell-based, human; conditions: Homo sapiens, T-cell, read-out: CD25 staining Anti-CD3/Anti-CD28 stimulation; for fold induction at 0.3 µM: 0.3 μM Cbl-b inhibitor; for fold induction at 1 µM: 1 μM Cbl-b inhibitor; for fold induction at 4 µM: 4 μM Cbl-b inhibitor
# In short: as §1
# T-cell [5] = test: CD25 cell surface staining on T-cells stimulated with anti-CD3 antibody alone (Biological Example 2); type: cell-based, human; conditions: T-cell, read-out: CD25 staining Anti-CD3 stimulation; for fold induction at 1 µM: 1 μM Cbl-b inhibitor; for fold induction at 8 µM: 8 μM Cbl-b inhibitor
# Cbl-b [6] = target: T1, Cbl-b; test: Cbl-b activity assay (Cbl-b inhibition assay), TR-FRET of Cbl-b interaction with UbcH5B-Ub; type: biochemical; conditions: assay buffer with 100 mM NaCl, 60 nM Src kinase; read-out: Cbl-b activity IC50
# In short: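 UbcH5B (C85K) conjugated to N-terminally Bodipy-Fluorescein-labeled ubiquitin served as the fluorescent partner. After compound preincubation, Src kinase (60 nM) with 1 mM ATP and 5 mM MgCl2 (final) was added for 1.5 h, followed by a further 1 h incubation. Some values were obtained with 50 mM NaCl and 30 nM Src.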
# [7] = fold change over baseline (anti-CD3/anti-CD28 stimulated T-cells without inhibitor)
# [8] = Homo sapiens, fold change over baseline (anti-CD3/anti-CD28 stimulated T-cells without inhibitor)
# [9] = fold change over baseline, primary human total T-cells
# T1 sequence (Q13191 36-427): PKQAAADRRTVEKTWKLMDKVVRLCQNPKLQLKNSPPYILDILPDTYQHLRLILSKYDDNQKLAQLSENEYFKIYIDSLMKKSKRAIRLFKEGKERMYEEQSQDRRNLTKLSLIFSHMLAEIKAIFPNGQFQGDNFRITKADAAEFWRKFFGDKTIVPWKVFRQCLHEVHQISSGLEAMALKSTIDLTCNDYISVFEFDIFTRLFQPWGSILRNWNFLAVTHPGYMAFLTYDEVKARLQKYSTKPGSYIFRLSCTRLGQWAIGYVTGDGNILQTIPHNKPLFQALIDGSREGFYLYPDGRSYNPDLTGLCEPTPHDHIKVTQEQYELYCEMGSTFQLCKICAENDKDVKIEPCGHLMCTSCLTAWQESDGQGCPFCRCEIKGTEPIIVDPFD
Compound,IC50 (Cbl-b [1]) [nM],fold induction at 0.3 µM (T-cell [2]; [7]),fold induction at 1 µM (T-cell [2]; [7]),fold induction at 1 µM (T-cell [3]; [8]),fold induction at 0.3 µM (T-cell [4]; [7]),fold induction at 1 µM (T-cell [4]; [7]),fold induction at 1 µM (T-cell [5]; [8]),IC50 (Cbl-b [6]) [nM],fold induction at 0.3 µM (T-cell [2]; [9]),fold induction at 1 µM (T-cell [2]; [9]),fold induction at 4 µM (T-cell [2]; [9]),fold induction at 1 µM (T-cell [3]; [9]),fold induction at 8 µM (T-cell [3]; [9]),fold induction at 0.3 µM (T-cell [4]; [9]),fold induction at 1 µM (T-cell [4]; [9]),fold induction at 4 µM (T-cell [4]; [9]),fold induction at 1 µM (T-cell [5]; [9]),fold induction at 8 µM (T-cell [5]; [9])
"Cn1cnnc1CC1(c2cccc(N3Cc4c(cc(CN5CCC6(CC5)CC6)cc4C(F)(F)F)C3=O)c2)COC1 [Example 641, 6-((6-azaspiro[2.5]octan-6-yl)methyl)-2-(3-(3-((4-methyl-4H-1,2,4-triazol-3-yl)methyl)oxetan-3-yl)phenyl)-4-(trifluoromethyl)isoindolin-1-one]",≤ 100,> 7.5,> 7.5,> 0.201,1.51 to 1.75,1.51 to 1.75,> 1,< 100,,,,,,,,,,
"C[C@H](Cc1nncn1C)c1cc(C2CC2)nc(N2Cc3c(cccc3C(F)(F)F)C2=O)c1 [Example 680, (R)-2-(6-cyclopropyl-4-(1-(4-methyl-4H-1,2,4-triazol-3-yl)propan-2-yl)pyridin-2-yl)-4-(trifluoromethyl)isoindolin-1-one]",≤ 100,1.01 to 2.5,2.51 to 5,0.101 to 0.15,1.01 to 1.3,1.01 to 1.3,0.801 to 1,< 100,,,,,,,,,,
"CC1CN(c2cc3c(c(C(F)(F)F)c2)CN(c2cccc(C4(Cc5nncn5C)COC4)c2)C3=O)C1 [Example 607, 2-(3-(3-((4-methyl-4H-1,2,4-triazol-3-yl)methyl)oxetan-3-yl)phenyl)-6-(3-methylazetidin-1-yl)-4-(trifluoromethyl)isoindolin-1-one]",≤ 100,1.01 to 2.5,2.51 to 5,0.101 to 0.15,1.01 to 1.3,1.01 to 1.3,0.601 to 0.8,< 100,,,,,,,,,,
"Cn1cnnc1CC1(c2cccc(NC(=O)c3cc(N4CC(C(F)F)C4)nc(C4CC4)n3)c2)COC1 [Example 610, 2-cyclopropyl-6-(3-(difluoromethyl)azetidin-1-yl)-N-(3-(3-((4-methyl-4H-1,2,4-triazol-3-yl)methyl)oxetan-3-yl)phenyl)pyrimidine-4-carboxamide]",≤ 100,2.51 to 5,> 7.5,0.101 to 0.15,1.01 to 1.3,1.01 to 1.3,0.801 to 1,< 100,,,,,,,,,,
"Cc1cc(C(=O)Nc2cccc([C@H](C)Cc3nncs3)c2)nc(C2CC2)n1 [Compound 334, (R)-N-(3-(1-(1,3,4-thiadiazol-2-yl)propan-2-yl)phenyl)-2-cyclopropyl-6-methylpyrimidine-4-carboxamide]",≤ 300,,,,,,,100 to 300,1.01 to 2.5,2.51 to 5,5 to 7.5,0.101 to 0.15,> 0.201,1.01 to 1.3,1.01 to 1.3,1.01 to 1.3,0.601 to 0.8,0.801 to 1
"Cc1cc(C(=O)Nc2cccc(C3(Cc4nncn4C)CCC3)c2)nc(C2CC2)n1 [Example 694, 2-cyclopropyl-6-methyl-N-(3-(1-((4-methyl-4H-1,2,4-triazol-3-yl)methyl)cyclobutyl)phenyl)pyrimidine-4-carboxamide]",≤ 100,> 7.5,> 7.5,0.051 to 0.1,1.31 to 1.5,1.31 to 1.5,> 1,< 100,,,,,,,,,,
"C[C@@H](c1cccc(N2Cc3c(cccc3C(F)(F)F)C2=O)c1)[C@@H](O)c1nncn1C (racemic) [Compound 292, cis-2-(3-(1-Hydroxy-1-(4-methyl-4H-1,2,4-triazol-3-yl)propan-2-yl)phenyl)-4-(trifluoromethyl)isoindolin-1-one]",≤ 10000,,,,,,,1000 to 3000,2.51 to 5,1.01 to 2.5,1.01 to 2.5,< 0.05,< 0.05,1.01 to 1.3,< 1,1.01 to 1.3,< 0.6,< 0.6
"CN1CC2CC(C1)N2c1cc2c(c(C(F)(F)F)c1)CN(c1cccc([C@@](C)(F)C(F)(F)c3nncn3C)c1)C2=O [Example 566, 6-(3-Methyl-3,6-diazabicyclo[3.1.1]heptan-6-yl)-2-(3-((R)-1,1,2-trifluoro-1-(4-methyl-4H-1,2,4-triazol-3-yl)propan-2-yl)phenyl)-4-(trifluoromethyl)isoindolin-1-one]",≤ 100,5 to 7.5,> 7.5,0.101 to 0.15,1.31 to 1.5,1.51 to 1.75,> 1,< 100,,,,,,,,,,
"C[C@H](Cc1nncn1C)c1cccc(N2Cc3c(cc(C(=O)N4CC(O)C4)cc3C3CC3)C2=O)c1 [Compound 278, (R)-4-cyclopropyl-6-(3-hydroxyazetidine-1-carbonyl)-2-(3-(1-(4-methyl-4H-1,2,4-triazol-3-yl)propan-2-yl)phenyl)isoindolin-1-one]",≤ 100,,,,,,,< 100,1.01 to 2.5,1.01 to 2.5,2.51 to 5,0.151 to 0.2,> 0.201,1.01 to 1.3,1.01 to 1.3,1.01 to 1.3,0.801 to 1,> 1
"COc1cc(C(=O)Nc2cccc([C@H](C)Cc3nncn3C)c2)nc(C(F)(F)F)c1 [Compound 192, (R)-4-methoxy-N-(3-(1-(4-methyl-4H-1,2,4-triazol-3-yl)propan-2-yl)phenyl)-6-(trifluoromethyl)picolinamide]",≤ 1000,,,,,,,301 to 1000,1.01 to 2.5,1.01 to 2.5,1.01 to 2.5,0.101 to 0.15,0.101 to 0.15,1.01 to 1.3,1.01 to 1.3,1.01 to 1.3,0.801 to 1,0.801 to 1
"Cn1cnnc1[C@@H](F)C1(c2cccc(N3Cc4c(cc(CN5C6CCC5CC6)cc4C(F)(F)F)C3=O)c2)COC1 [Example 671a, (S)-6-((7-azabicyclo[2.2.1]heptan-7-yl)methyl)-2-(3-(3-(fluoro(4-methyl-4H-1,2,4-triazol-3-yl)methyl)oxetan-3-yl)phenyl)-4-(trifluoromethyl)isoindolin-1-one]",≤ 100,2.51 to 5,5 to 7.5,> 0.201,1.51 to 1.75,> 1.76,0.601 to 0.8,< 100,,,,,,,,,,
"Cn1cnnc1CC1(c2cccc(N3Cc4c(cc(CN5CC6CC5CO6)cc4C(F)(F)F)C3=O)c2)COC1 (stereo not shown) [Example 619, 6-((2-oxa-5-azabicyclo[2.2.1]heptan-5-yl)methyl)-2-(3-(3-((4-methyl-4H-1,2,4-triazol-3-yl)methyl)oxetan-3-yl)phenyl)-4-(trifluoromethyl)isoindolin-1-one]",≤ 100,2.51 to 5,5 to 7.5,0.051 to 0.1,1.01 to 1.3,1.01 to 1.3,0.801 to 1,< 100,,,,,,,,,,
